# Laboratory results: the NIST ThermoML archive (doi:10.1016/j.jct.2011.02.008)
# ± gives the expanded uncertainty stated by the source.
# Conditions: Liquid, Vibrating tube method
smiles,measurement,setting,value
C1CCCCC1 [cyclohexane],mass density,"288.15 K, 100 kPa",782.7 ± 2.4 kg/m3
same,mass density,"288.15 K, 1000 kPa",783.7 ± 2.4 kg/m3
same,mass density,"288.15 K, 5000 kPa",787 ± 2.4 kg/m3
same,mass density,"288.15 K, 10000 kPa",790.7 ± 2.4 kg/m3
same,mass density,"288.15 K, 15000 kPa",794.1 ± 2.4 kg/m3
same,mass density,"298.15 K, 100 kPa",773.2 ± 2.4 kg/m3
same,mass density,"298.15 K, 1000 kPa",774 ± 2.4 kg/m3
same,mass density,"298.15 K, 5000 kPa",777.6 ± 2.4 kg/m3
same,mass density,"298.15 K, 10000 kPa",781.8 ± 2.4 kg/m3
same,mass density,"298.15 K, 15000 kPa",785.6 ± 2.4 kg/m3
same,mass density,"298.15 K, 20000 kPa",789.3 ± 2.4 kg/m3
same,mass density,"298.15 K, 25000 kPa",792.9 ± 2.4 kg/m3
same,mass density,"298.15 K, 30000 kPa",796.8 ± 2.4 kg/m3
same,mass density,"298.15 K, 35000 kPa",799.7 ± 2.4 kg/m3
same,mass density,"308.15 K, 100 kPa",763.6 ± 2.4 kg/m3
same,mass density,"308.15 K, 1000 kPa",764.5 ± 2.4 kg/m3
same,mass density,"308.15 K, 5000 kPa",768.2 ± 2.4 kg/m3
same,mass density,"308.15 K, 10000 kPa",772.6 ± 2.4 kg/m3
same,mass density,"308.15 K, 15000 kPa",776.8 ± 2.4 kg/m3
same,mass density,"308.15 K, 20000 kPa",780.8 ± 2.4 kg/m3
same,mass density,"308.15 K, 25000 kPa",784.6 ± 2.4 kg/m3
same,mass density,"308.15 K, 30000 kPa",788.3 ± 2.4 kg/m3
same,mass density,"308.15 K, 35000 kPa",791.8 ± 2.4 kg/m3
same,mass density,"308.15 K, 40000 kPa",795.2 ± 2.4 kg/m3
same,mass density,"318.15 K, 100 kPa",754 ± 2.4 kg/m3
same,mass density,"318.15 K, 1000 kPa",755 ± 2.4 kg/m3
same,mass density,"318.15 K, 5000 kPa",759 ± 2.4 kg/m3
same,mass density,"318.15 K, 10000 kPa",763.7 ± 2.4 kg/m3
same,mass density,"318.15 K, 15000 kPa",767.9 ± 2.4 kg/m3
same,mass density,"318.15 K, 20000 kPa",772.4 ± 2.4 kg/m3
same,mass density,"318.15 K, 25000 kPa",776.4 ± 2.4 kg/m3
same,mass density,"318.15 K, 30000 kPa",780.3 ± 2.4 kg/m3
same,mass density,"318.15 K, 35000 kPa",784.1 ± 2.4 kg/m3
same,mass density,"318.15 K, 40000 kPa",787.7 ± 2.4 kg/m3
same,mass density,"318.15 K, 45000 kPa",791.1 ± 2.4 kg/m3
same,mass density,"318.15 K, 50000 kPa",794.4 ± 2.4 kg/m3
same,mass density,"328.15 K, 100 kPa",744.4 ± 2.4 kg/m3
same,mass density,"328.15 K, 1000 kPa",745.4 ± 2.4 kg/m3
same,mass density,"328.15 K, 5000 kPa",749.7 ± 2.4 kg/m3
same,mass density,"328.15 K, 10000 kPa",754.7 ± 2.4 kg/m3
same,mass density,"328.15 K, 15000 kPa",759.5 ± 2.4 kg/m3
same,mass density,"328.15 K, 20000 kPa",764 ± 2.4 kg/m3
same,mass density,"328.15 K, 25000 kPa",768.2 ± 2.4 kg/m3
same,mass density,"328.15 K, 30000 kPa",772.3 ± 2.4 kg/m3
same,mass density,"328.15 K, 35000 kPa",776.1 ± 2.4 kg/m3
same,mass density,"328.15 K, 40000 kPa",779.9 ± 2.4 kg/m3
same,mass density,"328.15 K, 45000 kPa",783.5 ± 2.4 kg/m3
same,mass density,"328.15 K, 50000 kPa",787 ± 2.4 kg/m3
same,mass density,"338.15 K, 100 kPa",734.5 ± 2.4 kg/m3
same,mass density,"338.15 K, 1000 kPa",735.6 ± 2.4 kg/m3
same,mass density,"338.15 K, 5000 kPa",740.2 ± 2.4 kg/m3
same,mass density,"338.15 K, 10000 kPa",745.7 ± 2.4 kg/m3
same,mass density,"338.15 K, 15000 kPa",750.7 ± 2.4 kg/m3
same,mass density,"338.15 K, 20000 kPa",755.5 ± 2.4 kg/m3
same,mass density,"338.15 K, 25000 kPa",760 ± 2.4 kg/m3
same,mass density,"338.15 K, 30000 kPa",764.3 ± 2.4 kg/m3
same,mass density,"338.15 K, 35000 kPa",768.4 ± 2.4 kg/m3
same,mass density,"338.15 K, 40000 kPa",772.3 ± 2.4 kg/m3
same,mass density,"338.15 K, 45000 kPa",776 ± 2.4 kg/m3
same,mass density,"338.15 K, 50000 kPa",779.7 ± 2.5 kg/m3
same,mass density,"338.15 K, 55000 kPa",783.2 ± 2.5 kg/m3
same,mass density,"348.15 K, 100 kPa",724.6 ± 2.4 kg/m3
same,mass density,"348.15 K, 1000 kPa",725.7 ± 2.4 kg/m3
same,mass density,"348.15 K, 5000 kPa",730.8 ± 2.4 kg/m3
same,mass density,"348.15 K, 10000 kPa",736.5 ± 2.4 kg/m3
same,mass density,"348.15 K, 15000 kPa",741.9 ± 2.4 kg/m3
same,mass density,"348.15 K, 20000 kPa",747 ± 2.4 kg/m3
same,mass density,"348.15 K, 25000 kPa",751.7 ± 2.4 kg/m3
same,mass density,"348.15 K, 30000 kPa",756.2 ± 2.4 kg/m3
same,mass density,"348.15 K, 35000 kPa",760.5 ± 2.4 kg/m3
same,mass density,"348.15 K, 40000 kPa",764.6 ± 2.4 kg/m3
same,mass density,"348.15 K, 45000 kPa",768.6 ± 2.4 kg/m3
same,mass density,"348.15 K, 50000 kPa",772.3 ± 2.5 kg/m3
same,mass density,"348.15 K, 55000 kPa",776 ± 2.5 kg/m3
same,mass density,"358.15 K, 100 kPa",714.3 ± 2.4 kg/m3
same,mass density,"358.15 K, 1000 kPa",715.6 ± 2.4 kg/m3
same,mass density,"358.15 K, 5000 kPa",720.9 ± 2.4 kg/m3
same,mass density,"358.15 K, 10000 kPa",727.2 ± 2.4 kg/m3
same,mass density,"358.15 K, 15000 kPa",732.9 ± 2.4 kg/m3
same,mass density,"358.15 K, 20000 kPa",738.3 ± 2.4 kg/m3
same,mass density,"358.15 K, 25000 kPa",743.3 ± 2.4 kg/m3
same,mass density,"358.15 K, 30000 kPa",748.1 ± 2.4 kg/m3
same,mass density,"358.15 K, 35000 kPa",752.6 ± 2.4 kg/m3
same,mass density,"358.15 K, 40000 kPa",757 ± 2.4 kg/m3
same,mass density,"358.15 K, 45000 kPa",761.1 ± 2.5 kg/m3
same,mass density,"358.15 K, 50000 kPa",765 ± 2.5 kg/m3
same,mass density,"358.15 K, 55000 kPa",768.9 ± 2.5 kg/m3
